Source: patent publication US9422285B2, “Substituted pyrazolo[1,5-A]-pyridine-3-carboxamides and use thereof” (Bayer Pharma Aktiengesellschaft, priority 2014, dated 2016)
Counter-ions that a name gives are not always drawn.

What follows are compounds tested against T1, recombinant guanylate cyclase reporter cell line (Rattus norvegicus, UniProt P19686+P20595) (assay: Effect on a recombinant guanylate cyclase reporter cell line (B-2)). Conditions: in some cases mean values for individual determinations.
T1 construct: expressed in transfected cells
T1 sequence (P19686 1-690): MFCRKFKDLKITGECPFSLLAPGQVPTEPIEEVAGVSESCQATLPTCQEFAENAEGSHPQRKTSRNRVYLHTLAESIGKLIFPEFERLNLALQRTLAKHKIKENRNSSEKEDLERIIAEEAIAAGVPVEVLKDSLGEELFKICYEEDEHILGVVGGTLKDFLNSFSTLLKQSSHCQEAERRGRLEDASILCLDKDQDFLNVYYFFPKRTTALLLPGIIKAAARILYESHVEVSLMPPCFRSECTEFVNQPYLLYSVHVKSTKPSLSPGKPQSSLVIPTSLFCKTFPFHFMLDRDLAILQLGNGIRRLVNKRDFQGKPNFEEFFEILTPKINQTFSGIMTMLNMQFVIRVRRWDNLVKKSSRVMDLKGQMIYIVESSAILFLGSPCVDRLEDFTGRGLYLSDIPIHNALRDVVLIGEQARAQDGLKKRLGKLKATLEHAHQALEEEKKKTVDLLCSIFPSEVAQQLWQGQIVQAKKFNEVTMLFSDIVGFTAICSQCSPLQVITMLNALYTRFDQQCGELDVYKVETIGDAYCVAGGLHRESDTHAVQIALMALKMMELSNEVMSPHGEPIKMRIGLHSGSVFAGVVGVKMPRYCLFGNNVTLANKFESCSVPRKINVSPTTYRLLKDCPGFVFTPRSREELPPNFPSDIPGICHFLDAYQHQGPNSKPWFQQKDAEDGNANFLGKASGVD
T1 sequence (P20595 1-619): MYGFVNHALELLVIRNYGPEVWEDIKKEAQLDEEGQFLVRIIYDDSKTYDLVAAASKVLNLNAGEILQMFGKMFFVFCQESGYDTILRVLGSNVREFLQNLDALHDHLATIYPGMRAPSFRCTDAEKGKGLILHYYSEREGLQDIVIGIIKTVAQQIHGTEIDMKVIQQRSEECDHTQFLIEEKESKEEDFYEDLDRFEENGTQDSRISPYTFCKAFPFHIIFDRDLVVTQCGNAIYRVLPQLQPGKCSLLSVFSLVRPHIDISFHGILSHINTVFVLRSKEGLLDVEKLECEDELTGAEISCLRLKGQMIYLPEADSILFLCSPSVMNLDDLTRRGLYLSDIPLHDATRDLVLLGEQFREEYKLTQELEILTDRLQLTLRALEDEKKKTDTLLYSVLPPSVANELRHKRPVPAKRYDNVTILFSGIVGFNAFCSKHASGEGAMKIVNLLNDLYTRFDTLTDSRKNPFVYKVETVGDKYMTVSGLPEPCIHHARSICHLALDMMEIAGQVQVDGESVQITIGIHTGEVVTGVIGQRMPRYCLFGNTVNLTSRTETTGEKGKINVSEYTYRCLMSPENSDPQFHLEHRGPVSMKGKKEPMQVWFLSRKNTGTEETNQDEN
Assay type: cell-based
Description: B-2. Effect on a Recombinant Guanylate Cyclase Reporter Cell Line
The cellular effect of the inventive compounds is determined using a recombinant guanylate cyclase reporter cell line, as described in F. Wunder et al., Anal. Biochem. 339, 104-112 (2005).
Representative MEC values (MEC=minimum effective concentration) for the inventive compounds are shown in the table below (in some cases as mean values for individual determinations): […]
In the case of `Cc1cc(OCc2c(F)cccc2F)n2nc(C)c(C(=O)NCC(N)C#N)c2c1` (racemic) [Example 59, rac-N-(2-Amino-2-cyanoethyl)-7-[(2,6-difluorobenzyl)oxy]-2,5-dimethylpyrazolo[1,5-a]pyridine-3-carboxamide], the “MEC (minimum effective concentration)” value is reported as 3.0 µM. For `COc1ccc2c(c1)C(NC(=O)c1c(C)nn3c(OCc4c(F)cccc4F)cc(C)cc13)CCN2` (racemic) [Example 102, rac-7-[(2,6-Difluorobenzyl)oxy]-N-(6-methoxy-1,2,3,4-tetrahydroquinolin-4-yl)-2,5-dimethylpyrazolo[1,5-a]pyridine-3-carboxamide], the “MEC (minimum effective concentration)” value was 1.0 µM. With `Cc1cc(OCc2c(F)cccc2F)n2nc(C)c(C(=O)N[C@@H](CC(=O)OC(C)(C)C)CC(C)C)c2c1` [Example 37, tert-Butyl (3R)-3-[({7-[(2,6-difluorobenzyl)oxy]-2,5-dimethylpyrazolo[1,5-a]pyridin-3-yl}carbonyl)amino]-5-methylhexanoate] the “MEC (minimum effective concentration)” value was 10 µM. With `Cc1cc(OCc2c(F)ccc(F)c2F)n2nc(C)c(C(=O)Nc3cnn4ccccc34)c2c1` [Example 23, 2,5-Dimethyl-N-(pyrazolo[1,5-a]pyridin-3-yl)-7-[(2,3,6-trifluorobenzyl)oxy]pyrazolo[1,5-a]pyridine-3-carboxamide] the “MEC (minimum effective concentration)” value was 0.3 µM. For `COC(=O)c1cccc(C(N)CNC(=O)c2c(C)nn3c(OCc4c(F)cccc4F)cc(C)cc23)c1` (racemic) [Example 114, rac-Methyl 3-{1-amino-2-[({7-[(2,6-difluorobenzyl)oxy]-2,5-dimethylpyrazolo[1,5-a]pyridin-3-yl}carbonyl)amino]ethyl}benzoate], the “MEC (minimum effective concentration)” value was 10 µM. With `Cc1cc(OCc2c(F)ccc(F)c2F)n2nc(C)c(C(=O)NCCN(C)C)c2c1` [Example 12, N-[2-(Dimethylamino)ethyl]-2,5-dimethyl-7-[(2,3,6-trifluorobenzyl)oxy]pyrazolo[1,5-a]pyridine-3-carboxamide] the “MEC (minimum effective concentration)” value was 3.0 µM. In the case of `COc1ccc(CC(C)(N)CNC(=O)c2c(C)nn3c(OCc4c(F)cccc4F)cc(C)cc23)cc1` (racemic) [Example 99, rac-N-[2-Amino-3-(4-methoxyphenyl)-2-methylpropyl]-7-[(2,6-difluorobenzyl)oxy]-2,5-dimethylpyrazolo[1,5-a]pyridine-3-carboxamide], the “MEC (minimum effective concentration)” value is reported as 0.1 µM. With `Cc1cc(OCc2c(F)cccc2F)n2nc(C)c(C(=O)NCC(C)(N)CCF)c2c1` (racemic) [Example 48, rac-N-(2-Amino-4-fluoro-2-methylbutyl)-7-[(2,6-difluorobenzyl)oxy]-2,5-dimethylpyrazolo[1,5-a]pyridine-3-carboxamide] the “MEC (minimum effective concentration)” value was 0.3 µM. For `Cc1cc(OCc2c(F)ccc(F)c2F)n2nc(C)c(C(=O)NC3CC3c3ccccc3)c2c1` (racemic) [Example 10, rac-2,5-Dimethyl-N-(2-phenylcyclopropyl)-7-[(2,3,6-trifluorobenzyl)oxy]pyrazolo[1,5-a]pyridine-3-carboxamide], the “MEC (minimum effective concentration)” value was 1.0 µM. For `Cc1cc(OCc2c(F)cccc2F)n2nc(C)c(C(=O)NCC(N)c3cccc(OC(F)F)c3)c2c1` (racemic) [Example 116, rac-N-{2-Amino-2-[3-(difluoromethoxy)phenyl]ethyl}-7-[(2,6-difluorobenzyl)oxy]-2,5-dimethylpyrazolo[1,5-a]pyridine-3-carboxamide], the “MEC (minimum effective concentration)” value was 3.0 µM. With `Cc1cc(OCc2c(F)cccc2F)n2nc(C)c(C(=O)NC3CCOc4c(C#N)cccc43)c2c1` (racemic) [Example 140, rac-N-(8-Cyano-3,4-dihydro-2H-chromen-4-yl)-7-[(2,6-difluorobenzyl)oxy]-2,5-dimethylpyrazolo[1,5-a]pyridine-3-carboxamide] the “MEC (minimum effective concentration)” value was 0.3 µM. With `Cc1cc(OCc2c(F)cccc2F)n2nc(C)c(C(=O)NCC(N)c3cccc(C(F)(F)F)c3)c2c1` (racemic) [Example 105, rac-N-{2-Amino-2-[3-(trifluoromethyl)phenyl]ethyl}-7-[(2,6-difluorobenzyl)oxy]-2,5-dimethylpyrazolo[1,5-a]pyridine-3-carboxamide] the “MEC (minimum effective concentration)” value was 3.0 µM. In the case of `Cc1cc(OCc2c(F)cccc2F)n2nc(C)c(C(=O)NCC(C)(N)COc3ccc(F)c(F)c3)c2c1` (racemic) [Example 79, rac-N-[2-Amino-3-(3,4-difluorophenoxy)-2-methylpropyl]-7-[(2,6-difluorobenzyl)oxy]-2,5-dimethylpyrazolo[1,5-a]pyridine-3-carboxamide], the “MEC (minimum effective concentration)” value is reported as 3.0 µM. For `Cc1cc(OCc2c(F)cccc2F)n2nc(C)c(C(=O)NNC3CCCC3O)c2c1` (centres unmarked) [Example 68, 7-[(2,6-Difluorobenzyl)oxy]-N′-(2-hydroxycyclopentyl)-2,5-dimethylpyrazolo[1,5-a]pyridine-3-carbohydrazide trifluoroacetate], the “MEC (minimum effective concentration)” value was 10 µM. With `Cc1cc(OCc2c(F)ccc(F)c2F)n2nc(C)c(C(=O)NC3(c4ccc(Cl)cc4)CCCC3)c2c1` [Example 31, N-[1-(4-Chlorophenyl)cyclopentyl]-2,5-dimethyl-7-[(2,3,6-trifluorobenzyl)oxy]pyrazolo[1,5-a]pyridine-3-carboxamide] the “MEC (minimum effective concentration)” value was 1.0 µM. With `Cc1cc(OCc2c(F)cccc2F)n2nc(C)c(C(=O)NN3CCN(C)CC3)c2c1` [Example 173, 7-[(2,6-Difluorobenzyl)oxy]-2,5-dimethyl-N-(4-methylpiperazin-1-yl)pyrazolo[1,5-a]pyridine-3-carboxamide] the “MEC (minimum effective concentration)” value was 1.0 µM. `CCCC(C)(N)CNC(=O)c1c(C)nn2c(OCc3c(F)cccc3F)cc(C3CC3)cc12` (racemic) [Example 167, rac-N-(2-Amino-2-methylpentyl)-5-cyclopropyl-7-[(2,6-difluorobenzyl)oxy]-2-methylpyrazolo[1,5-a]pyridine-3-carboxamide] was tested, and the “MEC (minimum effective concentration)” value was 3.0 µM. In the case of `COc1cccc(C(CN)NC(=O)c2c(C)nn3c(OCc4c(F)cccc4F)cc(C)cc23)c1` (racemic) [Example 123, rac-N-[2-Amino-1-(3-methoxyphenyl)ethyl]-7-[(2,6-difluorobenzyl)oxy]-2,5-dimethylpyrazolo[1,5-a]pyridine-3-carboxamide], the “MEC (minimum effective concentration)” value is reported as 1.0 µM. `Cc1cc(OCc2c(F)cccc2F)n2nc(C)c(C(=O)NC3CCCc4c(N)cccc43)c2c1` (racemic) [Example 139, rac-N-(5-Amino-1,2,3,4-tetrahydronaphthalen-1-y1)-74(2,6-difluorobenzyl)oxy]-2,5-dimethylpyrazolo[1,5-a]pyridine-3-carboxamide] was tested, and the “MEC (minimum effective concentration)” value was 1.0 µM. In the case of `Cc1cc(OCc2c(F)cccc2F)n2nc(C)c(C(=O)N[C@@H]3COC[C@@H]3N)c2c1` (relative stereo) [Example 69, rel-N-[(3R,4S)-4-Aminotetrahydrofuran-3-yl]-7-[(2,6-difluorobenzyl)oxy]-2,5-dimethylpyrazolo[1,5-a]pyridine-3-carboxamide], the “MEC (minimum effective concentration)” value is reported as 10 µM. `CCC(N)(CC)CNC(=O)c1c(C)nn2c(OCc3c(F)ccc(F)c3F)cc(C)cc12` [Example 8, N-(2-Amino-2-ethylbutyl)-2,5-dimethyl-7-[(2,3,6-trifluorobenzyl)oxy]pyrazolo[1,5-a]pyridine-3-carboxamide] was tested, and the “MEC (minimum effective concentration)” value was 0.3 µM. In the case of `Cc1cc(OCc2c(F)cccc2F)n2nc(C)c(C(=O)NC3CCOc4c(C)cc(F)cc43)c2c1` (racemic) [Example 148, rac-7-[(2,6-Difluorobenzyl)oxy]-N-(6-fluoro-8-methyl-3,4-dihydro-2H-chromen-4-yl)-2,5-dimethylpyrazolo[1,5-a]pyridine-3-carboxamide], the “MEC (minimum effective concentration)” value is reported as 1.0 µM. In the case of `Cc1cc(OCc2c(F)cccc2F)n2nc(C)c(C(=O)Nc3ccc(N4CCNCC4)c(C(F)(F)F)c3)c2c1` [Example 125, 7-[(2,6-Difluorobenzyl)oxy]-2,5-dimethyl-N-[4-(piperazin-l-yl)-3-(trifluoromethyl)phenyl]pyrazolo[1,5-a]pyridine-3-carboxamide], the “MEC (minimum effective concentration)” value is reported as 3.0 µM.
